Assay results as given in paper PMC10480232 (Scientific Reports, 2023).
Non-standard residues stand in square brackets, D forms with d. Residues, ends and D or L forms follow the SMILES beside them.

What was measured:
SARS-CoV-1 HR1 = SARS-CoV-1 HR1 (Severe acute respiratory syndrome coronavirus, UniProt P59594); assay: biochemical; type: binding
SARS-CoV-2 HR1 = SARS-CoV-2 HR1 (Severe acute respiratory syndrome coronavirus 2, UniProt P0DTC2); assay: biochemical; type: binding
[1] = test system: SARS-CoV-2 (nCoV/USA_WA1/2020)
[2] = molecular target: SARS-CoV-1 spike heptad repeat 1 peptide, biotinylated (SARS-CoV-1); assay: BLI
SARS-CoV-2 = conditions: 1 h

CC[C@@H](C)[C@@H](NC(=O)[C@H]1CCCN1C(=O)[C@H]1CCCN1C(=O)[C@H](NC(=O)[C@@H](Cc1c[nH]c2ccccc12)NC(=O)[C@@H](CCCCN)NC(=O)[C@@H](CC(C)C)NC(=O)[C@H](NC(=O)[C@@H](CCCCN)NC(=O)CNC(=O)[C@H](NC(=O)[C@@H](CCCCN)NC(=O)[C@@H](CCCCN)NC(=O)[C@@H](CC(C)C)NC(=O)[C@@H](CCCNC(=N)N)NC(=O)[C@@H](CCCCN)NC(=O)[C@@H](CCCNC(=N)N)NC(=O)[C@H](NC(=O)[C@@H](CCCCN)NC(=O)[C@@H](CCCCN)NC(=O)[C@@H](CCCNC(=N)N)NC(=O)[C@@H](CC(C)C)NC(=O)[C@@H](CCCNC(=N)N)NC(=O)[C@@H](CCCNC(=N)N)NC(=O)[C@@H](Cc1ccccc1)NC(=O)[C@@H](CCCNC(=N)N)NC(=O)CNC(=O)[C@H](N)C(C)C)[C@H](C)O)[C@H](C)CC)C(C)C)[C@H](C)CC)C(=O)N[C@@H](C(=O)NCC(=O)N[C@H](CO)C(=O)N[C@@H](C(=O)N1CCC[C@@H]1C(=O)N[C@H](CC(C)C)C(=O)NCC(=O)N[C@H](CO)C(=O)NCC(=O)O)[C@H](C)CC)C(C)C [D-Yongshi] (H-[dV]G[dR][dF][dR][dR][dL][dR][dK][dK][dT][dR][dK][dR][dL][dK][dK][dI]G[dK][dV][dL][dK][dW][dI][dP][dP][dI][dV]G[dS][dI][dP][dL]G[dS]G-OH; N-terminus and C-terminus assumed)
Kd (SARS-CoV-1 HR1): > 100 µM
cytotoxicity compared with parent or control peptide (in words) (Vero hACE2 cells): greatly increased cytotoxicity
Kd (SARS-CoV-2 HR1): > 100 µM
SARS-CoV-2 inhibition by D-enantiomer (in words) [1]: only observed at concentrations that also induced substantial cell death

CC[C@H](C)[C@H](NC(=O)[C@@H](NC(=O)[C@@H](N)CO)[C@@H](C)CC)C(=O)N[C@@H](CC(N)=O)C(=O)N[C@@H](Cc1ccccc1)C(=O)N[C@@H](CCC(=O)O)C(=O)N[C@@H](CCCCN)C(=O)N[C@@H](CC(C)C)C(=O)O [OVA, reference compound]
Vero TD50 48 h (Vero hACE2 cells): > 50 µM
HEK293T TD50 (HEK293T cells): > 50 µM
Vero TD50 24 h (Vero A2T2 cell line): > 400 µM

SARS-CoV-2 spike heptad repeat 2 peptide
Kd [2]: 59.5 µM

CC[C@H](C)[C@H](NC(=O)[C@H](CCCCN)NC(=O)[C@H](CCC(=O)O)NC(=O)[C@H](CCCCN)NC(=O)[C@H](CO)NC(=O)[C@H](CCCCN)NC(=O)[C@H](CCCNC(=N)N)NC(=O)[C@H](Cc1ccccc1)NC(=O)[C@H](Cc1ccccc1)NC(=O)[C@H](CC(=O)O)NC(=O)CNC(=O)[C@H](CC(C)C)NC(=O)[C@@H](N)CC(C)C)C(=O)NCC(=O)N[C@@H](CCCCN)C(=O)N[C@@H](CCC(=O)O)C(=O)N[C@@H](Cc1ccccc1)C(=O)N[C@@H](CCCCN)C(=O)N[C@@H](CCCNC(=N)N)C(=O)N[C@H](C(=O)N[C@H](C(=O)N[C@@H](CCC(N)=O)C(=O)N[C@@H](CCCNC(=N)N)C(=O)N[C@H](C(=O)N[C@@H](CCCCN)C(=O)N[C@@H](CC(=O)O)C(=O)N[C@@H](Cc1ccccc1)C(=O)N[C@@H](CC(C)C)C(=O)N[C@@H](CCCNC(=N)N)C(=O)N[C@@H](CC(N)=O)C(=O)N[C@@H](CC(C)C)C(=O)N[C@H](C(=O)N1CCC[C@H]1C(=O)N[C@@H](CCCNC(=N)N)C(=O)N[C@H](C(=O)N[C@@H](CCC(=O)O)C(=O)N[C@@H](CO)C(=O)O)[C@@H](C)O)C(C)C)[C@@H](C)CC)C(C)C)[C@@H](C)CC [LL-37, reference compound]
Vero TD50 48 h (Vero hACE2 cells): 39.44 µM
hemolytic activity (in words) (human red blood cells): considerable hemolytic activity
HEK293T TD50 (HEK293T cells): 26.61 µM
SARS-CoV-2 inhibition at 50 µM (SARS-CoV-2): > 50%
